The results in this text go back to patent US6300501A, “Histidine-(N-benzyl glycinamide) inhibitors of protein farnesyl transferase” (Warner-Lambert Company, priority 1998, dated 2001).

In assay [1] the test system is ras farnesylation in ras-transformed cells. Put plainly: Gel shift assay. The assay is classed as cell-based. The settings on record: ras-transformed cells, 18-hour incubation; read-out: Gel Shift (μM) MED (minimal effective dose to observe inhibition of ras farnesylation). Here is the method:
Twenty-four hours after planting 2×10^6 ras-transformed cells per treatment condition, the farnesylation inhibitor is added at varying concentrations. Following an 18-hour incubation period, cells are lysed in phosphate-buffered saline containing 1% Triton X-100, 0.5% sodium deoxycholate, and 0.1% SDS (sodium dodecyl sulfate), pH 7.4 in the presence of several protease inhibitors (PMSF (phenylmethylsulfonylfluoride), antipain, leupeptin, pepstatin A, and aprotinin all at 1 μg/mL). Ras protein is immunoprecipitated from the supernatants by the addition of 3 μg v-H-ras Ab-2 (Y13-259 antibody from Oncogene Science). After overnight immunoprecipitation, 30 μL of a 50% protein G-Sepharose slurry (Pharmacia) is added followed by 45-minute incubation. Pellets are resuspended in 2× tris-glycine loading buffer (Novex) containing 5% β-mercaptoethanol and then denatured by 5 minutes boiling prior to electrophoresis on 14% Tris-glycine SDS gels. Using Western transfer techniques, proteins are transferred to nitrocellulose membranes followed by blocking in blocking buffer. Upon overnight incubation with primary antibody (pan-ras Ab-2 from Oncogene Science), an antimouse HRP (horse radish peroxidase) conjugate secondary antibody (Amersham) is employed for detection of the ras protein. Blots are developed using ECL(enhanced chemiluminescence) techniques (Amersham).

Assay [2] has as its target T1, SF9 affinity purified rat farnesyl protein transferase (Rattus norvegicus, UniProt Q02293+Q04631).
T1 construct: made in house; host or cells: Sf9 insect cells (baculovirus system inferred from b7)
In words: PFT inhibitory activity (radiolabeled farnesyl pyrophosphate, streptavidin bead assay). It is filed as biochemical. The method, then:
The protein:farnesyl transferase (PFT) or farnesyl protein transferase (FPT) inhibitory activity of compounds of the present invention were assayed in HEPES buffer (pH 7.4) containing 5 mM potassium phosphate and 20 μM ZnCl2. The solution also contained 5 mM DTT (dithiothreitol), 5 mM MgCl2, and 0.1% PEG 8000. Assays were performed in 96 well plates (Wallec) and employed solutions composed of varying concentrations of a compound of the present invention in 100% DMSO (dimethylsulfoxide). Upon addition of both substrates, radiolabeled farnesyl pyrophosphate ([1^3 H], specific activity 15-30 Ci/mmol, final concentration 134 nM) and (biotinyl)-Ahe-Thr-Lys-Cys-Val-Ile-Met ([3aS[3a alpha, 4 beta, 6a alpha]-hexahydro-2-oxo-1H-thieno[3,4-d]imidazole-5-pentanoic acid]-[7-aminoheptanoic acid]-Thr-Lys-Cys-Val-Ile-Met) (Ahe is 7-aminoheptanoic acid, Thr is threonine, Lys is lysine, Cys is cysteine, Val is valine, Ile is isoleucine and Met is methionine) (final concentration 0.2 μM), the enzyme reaction was started by addition of SF9 affinity purified rat farnesyl protein transferase. After incubation at 30° C. for 30 minutes, the reaction was terminated by diluting the reaction 2.5-fold with a stop buffer containing 1.5 M magnesium acetate, 0.2 M H3 PO4, 0.5% BSA (bovine serum albumin), and strepavidin beads (Amersham) at a concentration of 1.3 mg/mL. After allowing the plate to settle for 30 minutes at room temperature, radioactivity was quantitated on a microBeta counter (Model 1450, Wallec). The assay was also carried out without 5 mM potassium phosphate.

The subject of assay [3] is H61 cells: NIH transformed 3T3 H-ras cells. Put plainly: Clonogenic assay (6 well plates, soft agar). It is filed as cell-based. Here is the method:
Clonoaenic Assay (6 well lates)
Sometime previous to setting up an actual test:
1. Make up 1.5% Bacto Agar in Milli-Q water and autoclave.
2. Make up 500 mL 2× DMEM-HG without phenol red by combining the following:
1 bottle DMEM base powder (Sigma D-5030)
Adjust pH to 7.1 with HCL; filter sterilize.
1. Set up makeshift water bath (beaker of water with thermometer, on hot plate) in the hood. Keep water temperature between 37° C. to 43° C.
2. […] 1.5% Bacto Agar for approximately 2 minutes on high, or until completely melted. Then let it cool somewhat before using it. (You can keep it from resolidifying by setting the bottle on the hot plate.) […]
3. Bottom Layer (0.6% agar) Top Layer (0.3% agar)
20% calf serum 20% calf serum
40% Bacto Agar (1.5%) 20% Bacto Agar (1.5%)
Depending on the volume of each layer needed, use either 50 mL conical tubes or 200 mL turnip tubes which can be floated in the "water bath".
4. Add 1 mL of bottom layer agar/medium to each well: deliver 1 mL warm agar/medium to a well; then using the tip of the pipet, spread the agar/medium around to completely cover the bottom. Repeat with next well.
5. Allow the plates to set at room temperature for about 5 minutes until the bottom layer solidifies.
6. Label sterile Falcon 2054 (12×75 mm) tubes and add appropriate volume of drug solutions into them.
7. Aliquot 4 AL of DMSO or drug solution per 1 mL of agar/medium to appropriate tubes; then add the agar/medium/cells to each tube. Always add 1 mL more than will actually be needed. Mix up and down in the pipet (gently); then deliver 1 mL to the center of each well. The upper layer is less viscous, so it will generally spread out over the bottom layer unaided. If necessary, rotate the plane of the plate gently to spread the top layer evenly over the bottom layer.
8. Let plates set for 5 or 10 minutes at room temperature to solidify, then put into 5% CO2, 37° C. incubator.
9. On Day 13, add 0.5 mL of INT (tetrazolium 1 mg/mL in Milli-Q H2 O, filter sterilized) and return plates to incubator.

[4] abbreviates: HEPES buffer pH 7.4, without 5 mM potassium phosphate, read-out: IC50 (μM) Hepes.
The mark [5] stands for this setting: HEPES buffer pH 7.4 containing 5 mM potassium phosphate, read-out: IC50 (μM) 5 mM K3 PO4 -2.
[6] abbreviates: 312 h, colonies counted after Day 13, read-out: Clonogenic Assay IC50.
Setting [7] is: colonies counted after Day 13, read-out: Clonogenic Assay IC50.
Where [8] appears, read: with 5 mM potassium phosphate, average obtained by additional tests, read-out: IC50 (μM) 5 mM K3 PO4 -2, number in parentheses.
Setting [9] is: without 5 mM potassium phosphate, average obtained by additional tests, read-out: IC50 (μM) Hepes, number in parentheses.

Where two headings read alike, the source gives them in different places.

T1 sequence (Q02293 whole entry, one chain of several): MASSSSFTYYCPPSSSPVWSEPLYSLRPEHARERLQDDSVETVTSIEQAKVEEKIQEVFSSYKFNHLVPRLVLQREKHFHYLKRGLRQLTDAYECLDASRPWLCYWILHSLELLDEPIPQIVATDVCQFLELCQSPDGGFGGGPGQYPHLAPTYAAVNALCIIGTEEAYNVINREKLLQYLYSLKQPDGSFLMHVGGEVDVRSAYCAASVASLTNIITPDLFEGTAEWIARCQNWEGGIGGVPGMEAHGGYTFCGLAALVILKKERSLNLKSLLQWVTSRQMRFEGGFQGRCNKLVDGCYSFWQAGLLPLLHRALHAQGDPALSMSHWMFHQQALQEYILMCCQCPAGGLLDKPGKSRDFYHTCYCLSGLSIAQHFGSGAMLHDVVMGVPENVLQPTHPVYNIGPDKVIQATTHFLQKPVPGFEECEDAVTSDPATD

As for `Cc1cccc(CN(CC(=O)NCC(C)c2ccccc2)C(=O)[C@H](Cc2c[nH]cn2)NC(=O)OCc2ccccc2)c1` (stereo partly drawn) [Example 47, (S)-(2-(1H-Imidazole-4-yl)-1-{(3-methyl-benzyl)-[(2-phenyl-propylcarbamoyl)-methyl]-carbamoyl}-ethyl)-carbamic Acid Benzyl Ester], the minimal effective concentration in assay [1] was 0.05 µM. Moreover, the figures for the IC50 in assay [2] (setting [4]), in assay [2] (setting [5]) and in assay [3] (setting [6]) were 0.62 µM, 0.035 µM and 0.73 µM, respectively.
In the case of `CC(C)(CNC(=O)CN(Cc1ccc(Cl)cc1)C(=O)[C@H](Cc1c[nH]cn1)NC(=O)OCc1ccccc1)c1ccccc1` [Example 31, (S)-[1-{(4-Chloro-benzyl)-[(2-methyl-2-phenyl-propylcarbamoyl)-methyl]-carbamoyl}-2-(1H-imidazole-4-yl)-ethyl]-carbamic Acid Benzyl Ester], the minimal effective concentration in assay [1] was found to be 0.1 µM. Further, the IC50 in assay [2] (setting [4]) is 0.52 µM; in assay [2] (setting [5]), 0.014 µM; in assay [3] (setting [6]), greater than 1 µM.
With `Cc1ccccc1CN(CC(=O)NCC(C)c1ccccc1)C(=O)[C@H](Cc1c[nH]cn1)NC(=O)OCc1ccccc1` (stereo partly drawn) [Example 43], the minimal effective concentration in assay [1] was found to be 0.2 µM. Moreover, the IC50 in assay [2] (setting [4]) is 3.9 µM; in assay [2] (setting [5]), 0.038 µM; in assay [3] (setting [7]) it was greater than 1 µM.
With `CC(CNC(=O)CN(Cc1ccc(OCc2cccnc2)cc1)C(=O)[C@H](Cc1c[nH]cn1)NC(=O)OCc1ccccc1)c1ccccc1` (stereo partly drawn) [Example 36, (S)-(2-(1H-Imidazole-4-yl)-1-{[(2-phenyl-propylcarbamoyl)-methyl]-[4-(pyridin-3-ylmethoxy)-benzyl]-carbamoyl}-ethyl)-carbamic Acid Benzyl Ester], the minimal effective concentration in assay [1] was no less than 0.05 µM. The results for the IC50 in assay [2] (setting [4]), in assay [2] (setting [5]) and in assay [3] (setting [6]) were 0.45 µM, 0.007 µM and 0.32 µM, respectively.
As for `O=C(CN(Cc1ccc(OCc2ccccc2)cc1)C(=O)[C@H](Cc1c[nH]cn1)NC(=O)OCc1ccccc1)NCCc1ccccc1F` [Example 7, (S)-[1-((4-Benzyloxy-benzyl)-{[2-(2-fluoro-phenyl)-ethylcarbamoyl]-methyl]-carbamoyl)-2-(1H-imidazole-4-yl)-ethyl]-carbamic Acid Benzyl Ester], in assay [1], the minimal effective concentration stood at 0.1 µM. The IC50 is 9.8 µM in assay [2] (setting [4]), 0.36 µM in assay [2] (setting [5]) and greater than 1 µM in assay [3] (setting [6]).
For `CC(CNC(=O)CN(Cc1ccc(OCc2ccccc2)cc1)C(=O)[C@H](Cc1c[nH]cn1)NC(=O)OCc1ccccc1)c1ccccc1` (stereo partly drawn) [Example 4, (S)-[1-[(4-Benzyloxy-benzyl)-[(2-phenyl-propyl-carbamoyl)-methyl]-carbamoyl]-2-(1H-imidazole-4-yl)-ethyl]carbamic Acid Benzyl Ester], the minimal effective concentration in assay [1] is 0.05 µM. The IC50 in assay [2] (setting [4]) was 5.8 µM; in assay [2] (setting [5]) it was 0.0076 µM; in assay [2] (setting [8]), 0.005 µM; in assay [2] (setting [9]) it was 0.15 µM; in assay [3] (setting [6]), greater than 1 µM; in assay [3] (average obtained by additional tests, read-out: Clonogenic Assay IC50 (μM), number in parentheses), 0.31 µM.
Take `N#CC(CNC(=O)CN(Cc1ccc(OCc2ccccc2)cc1)C(=O)[C@H](Cc1c[nH]cn1)NC(=O)OCc1ccccc1)c1ccccc1` (stereo partly drawn) [Example 45]: the minimal effective concentration in assay [1] was 0.05 µM. In addition, the IC50 turned out to be 0.35 µM in assay [2] (setting [4]), 0.0024 µM in assay [2] (setting [5]) and 0.14 µM in assay [3] (setting [7]).
For `C[C@@H](Cc1ccccc1)NC(=O)CN(Cc1ccc(OCc2ccccc2)cc1)C(=O)[C@H](Cc1c[nH]cn1)NC(=O)OCc1ccccc1` [Example 11], in assay [1], the minimal effective concentration is listed as 0.2 µM. The IC50 in assay [2] (setting [4]) was 2.5 µM; in assay [2] (setting [5]), 0.082 µM; in assay [3] (setting [7]) it was greater than 1 µM.
Take `COc1cccc(CN(CC(=O)NCC(C)c2ccccc2)C(=O)[C@H](Cc2c[nH]cn2)NC(=O)OCc2ccccc2)c1` (stereo partly drawn) [Example 35, (S)-(2-(1H-Imidazole-4-yl)-1-{(3-methoxy-benzyl)-[(2-phenyl-propylcarbamoyl)-methyl]-carbamoyl}-ethyl)-carbamic Acid Benzyl Ester]: the minimal effective concentration in assay [1] stood at 0.2 µM. In addition, the IC50 is 2.1 µM in assay [2] (setting [4]), 0.009 µM in assay [2] (setting [5]) and greater than 1 µM in assay [3] (setting [6]).
On to `CC(C)(CNC(=O)CN(Cc1ccc(OCc2ccccn2)cc1)C(=O)[C@H](Cc1c[nH]cn1)NC(=O)OCc1ccccc1)c1ccccc1` [Example 40, (S)-(2-(1H-Imidazole-4-yl)-1-{[(2-methyl-2-phenyl-propylcarbamoyl)-methyl]-[4-(pyridin-2-ylmethoxy)-benzyl]-carbamoyl}-ethyl)-carbamic Acid Benzyl Ester], for which the minimal effective concentration in assay [1] was 0.01 µM. For the same compound, the IC50 in assay [2] (setting [4]) is 0.12 µM; in assay [2] (setting [5]), 0.001 µM; in assay [3] (setting [6]) it was 0.19 µM.
For `CC(C)(CNC(=O)CN(Cc1ccc(OCc2cccnc2)cc1)C(=O)[C@H](Cc1c[nH]cn1)NC(=O)OCc1ccccc1)c1ccccc1` [Example 50, (S)-(2-(1H-Imidazole-4-yl)-1-{[(2-methyl-2-phenyl-propylcarbamoyl)-methyl]-[4-(pyridin-3-ylmethoxy)-benzyl]-carbamoyl}-ethyl)-carbamic Acid Benzyl Ester], the minimal effective concentration in assay [1] worked out at 0.05 µM. Moreover, the IC50 was found to be 0.089 µM in assay [2] (setting [4]), 0.001 µM in assay [2] (setting [5]) and 0.27 µM in assay [3] (setting [6]).
With `O=C(CN(Cc1ccc(Cl)cc1)C(=O)[C@H](Cc1c[nH]cn1)NC(=O)OCc1ccccc1)NCCOCc1ccccc1` [Example 3], the minimal effective concentration in assay [1] is listed as 0.25 µM. Also, the IC50 in assay [2] (setting [4]) was 3.1 µM; in assay [2] (setting [5]), 0.97 µM; in assay [2] (setting [8]), 0.61 µM; in assay [2] (setting [9]), 2.8 µM; in assay [3] (setting [7]), greater than 1 µM.
For the compound `CC(CNC(=O)CN(Cc1ccc(OCc2ccccc2)cc1)C(=O)[C@H](Cc1c[nH]cn1)NC(=O)CCc1ccccc1)c1ccccc1` (stereo partly drawn) [Example 17, (S)-N-(4-Benzyloxy-benzyl)-3-(1H-imidazole-4-yl)-2-(3-phenyl-proponylamino)-N-[(2-phenyl-propylcarbamoyl)-methyl]-propionamide], in assay [1], the minimal effective concentration amounted to 0.2 µM. Moreover, the figures for the IC50 in assay [2] (setting [4]), in assay [2] (setting [5]) and in assay [3] (setting [7]) were 2.8 µM, 0.086 µM and greater than 1 µM, respectively.

For orientation: IC50 means the concentration at which inhibition is half-maximal.
